For data set [1] the following is noted: topical ocular administration, background statement; cited from earlier work.
Data set [2] relates to SIRC (Statens Serum Institut Rabbit Cornea, ATCC CCL-60) cells. On the procedure:
Permeability assays were performed in triplicate and repeated at least in three independent assays on different days. For this purpose, SIRC (Statens Serum Institut Rabbit Cornea, ATCC® CCL-60™) cells were seeded in sterile 6-well microfilter plates and maintained in culture until confluence. SIRC cells were cultured in Eagle's Minimum Essential Medium (EMEM) supplemented with 10% foetal bovine serum (FBS) and with 1% of penicillin-streptomycin solution at 37° C. and 10% CO2 in air. Ciprofloxacin was dissolved in dimethyl sulfoxide (DMSO) to prepare a concentrated stock solution which was further diluted in culture medium to obtain a final concentration of 20 μg/ml.
The cells were treated with ciprofloxacin alone or in combination with the different concentrations of each corticosteroid for 15 minutes. After the incubation period, the culture medium was removed, and the cells were harvested by trypsinization and centrifuged at 980 g for 5 min at 4° C. The cellular pellet was washed with saline solution to remove possible traces of residual extracellular compounds, centrifuged, and preserved at −80° C. for further analysis.
Intracellular ciprofloxacin was quantified by ultra-high-performance liquid chromatography coupled to tandem mass spectrometry (UHPLC-MS/MS). […] Transition monitored for ciprofloxacin was m/z 332.2→288.2, with cone voltage 35 V and collision energy 20 eV.

SMILES strings stand for the structures.

`O=C(O)c1cn(C2CC2)c2cc(N3CCNCC3)c(F)cc2c1=O` [ciprofloxacin, Ciprofloxacin]: the “fraction of topically instilled drug absorbed into the ocular tissue” value in data set [1] is reported as “around 1%”.

In the case of `CC1(C)O[C@@H]2C[C@H]3[C@@H]4C[C@H](F)C5=CC(=O)C=C[C@]5(C)[C@@]4(F)[C@@H](O)C[C@]3(C)[C@]2(C(=O)CO)O1` [fluocinolone acetonide, Fluocinolone acetonide], in data set [2], the “dose dependence of the penetration enhancing effect on ciprofloxacin” value is “dose-dependent”.
